How the values were obtained:
Test in all cases: Kinobeads competition binding, HeLa Placenta lysate mix
Set-up in all cases: endogenous in cells
Details in all cases: 10 μM free compound
LRRK2 = LRRK2 (Homo sapiens, UniProt Q5S007)
Method: (§1) To one aliquot of cell lysate 10 μM of the free compound (FIG. 3, CZC31326) was added and allowed to bind to proteins in the lysate. Then the affinity matrix with the immobilized compound was added to capture proteins that were not interacting with the previously added free compound. Beads were separated from the lysate and bead bound proteins were eluted in SDS sample buffer and subsequently separated by SDS-Polyacrylamide gel electrophoresis (FIG. 10). Suitable gel bands were cut out and subjected to in-gel proteolytic digestion with trypsin. The second lysate aliquot was processed identically, however no free compound was added (DMSO solvent control). Peptides originating from samples 1 and 2 were labeled with iTRAQ reagents (iTRAQ 114 and iTRAQ 117) and the combined samples were analyzed with a nano-flow liquid chromatography system coupled online to a tandem mass spectrometer (LC-MS/MS) experiment followed by iTRAQ reporter ion quantification in the MS/MS spectra as described in Example 2.

PKN1 = PKN1 (Homo sapiens, UniProt Q16512)
Chain of PKN1 (Q16512 whole entry): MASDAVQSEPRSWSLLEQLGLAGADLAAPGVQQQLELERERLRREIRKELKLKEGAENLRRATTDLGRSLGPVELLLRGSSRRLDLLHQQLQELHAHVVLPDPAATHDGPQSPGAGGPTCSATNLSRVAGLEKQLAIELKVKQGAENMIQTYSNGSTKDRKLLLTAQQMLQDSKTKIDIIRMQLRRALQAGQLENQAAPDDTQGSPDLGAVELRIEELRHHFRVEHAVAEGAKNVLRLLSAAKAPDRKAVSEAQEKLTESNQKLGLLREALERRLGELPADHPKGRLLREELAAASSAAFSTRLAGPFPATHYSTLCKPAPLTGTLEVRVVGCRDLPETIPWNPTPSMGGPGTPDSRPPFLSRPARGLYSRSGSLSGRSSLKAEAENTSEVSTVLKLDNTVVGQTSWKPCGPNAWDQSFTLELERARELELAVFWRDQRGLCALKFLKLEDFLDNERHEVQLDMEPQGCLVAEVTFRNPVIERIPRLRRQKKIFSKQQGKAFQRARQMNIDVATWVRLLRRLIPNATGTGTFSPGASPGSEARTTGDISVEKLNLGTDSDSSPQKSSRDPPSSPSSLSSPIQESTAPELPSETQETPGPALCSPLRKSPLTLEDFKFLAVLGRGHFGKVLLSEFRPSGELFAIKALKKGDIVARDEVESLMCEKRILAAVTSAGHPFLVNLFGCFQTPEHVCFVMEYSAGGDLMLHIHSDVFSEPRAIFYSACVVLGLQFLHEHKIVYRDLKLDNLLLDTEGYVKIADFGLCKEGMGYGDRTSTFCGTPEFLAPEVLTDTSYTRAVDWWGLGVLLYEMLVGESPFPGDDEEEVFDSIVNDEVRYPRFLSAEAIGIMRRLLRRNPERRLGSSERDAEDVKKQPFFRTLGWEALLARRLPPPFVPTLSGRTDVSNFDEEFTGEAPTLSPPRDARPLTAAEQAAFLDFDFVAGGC
Method: as §1

MSK2 = MSK2 (Homo sapiens, UniProt O75676)
Chain of MSK2 (O75676 whole entry): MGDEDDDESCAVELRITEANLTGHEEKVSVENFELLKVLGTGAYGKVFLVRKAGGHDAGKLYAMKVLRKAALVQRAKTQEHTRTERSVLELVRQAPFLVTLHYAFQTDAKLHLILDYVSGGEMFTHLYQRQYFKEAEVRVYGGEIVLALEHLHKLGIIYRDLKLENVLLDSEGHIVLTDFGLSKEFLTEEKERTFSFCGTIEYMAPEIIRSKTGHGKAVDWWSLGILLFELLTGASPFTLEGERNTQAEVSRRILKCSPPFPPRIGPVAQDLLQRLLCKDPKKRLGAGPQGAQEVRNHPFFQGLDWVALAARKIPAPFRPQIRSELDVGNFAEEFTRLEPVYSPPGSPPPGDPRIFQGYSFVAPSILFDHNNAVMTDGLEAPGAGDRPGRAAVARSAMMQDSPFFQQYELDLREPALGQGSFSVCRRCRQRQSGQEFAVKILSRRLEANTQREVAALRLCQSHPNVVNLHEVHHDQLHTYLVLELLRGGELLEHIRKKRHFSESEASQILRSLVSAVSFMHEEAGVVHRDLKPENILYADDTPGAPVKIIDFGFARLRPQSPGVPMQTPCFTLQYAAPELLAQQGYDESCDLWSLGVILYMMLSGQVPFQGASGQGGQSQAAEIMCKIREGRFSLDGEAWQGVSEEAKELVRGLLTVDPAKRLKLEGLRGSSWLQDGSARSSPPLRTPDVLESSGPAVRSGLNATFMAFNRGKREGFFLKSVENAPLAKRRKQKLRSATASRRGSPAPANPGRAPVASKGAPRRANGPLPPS
Method: as §1

MAP3K2 = target: T1, MAP3K2 (Homo sapiens, UniProt Q9Y2U5)
T1 sequence (Q9Y2U5 1-619): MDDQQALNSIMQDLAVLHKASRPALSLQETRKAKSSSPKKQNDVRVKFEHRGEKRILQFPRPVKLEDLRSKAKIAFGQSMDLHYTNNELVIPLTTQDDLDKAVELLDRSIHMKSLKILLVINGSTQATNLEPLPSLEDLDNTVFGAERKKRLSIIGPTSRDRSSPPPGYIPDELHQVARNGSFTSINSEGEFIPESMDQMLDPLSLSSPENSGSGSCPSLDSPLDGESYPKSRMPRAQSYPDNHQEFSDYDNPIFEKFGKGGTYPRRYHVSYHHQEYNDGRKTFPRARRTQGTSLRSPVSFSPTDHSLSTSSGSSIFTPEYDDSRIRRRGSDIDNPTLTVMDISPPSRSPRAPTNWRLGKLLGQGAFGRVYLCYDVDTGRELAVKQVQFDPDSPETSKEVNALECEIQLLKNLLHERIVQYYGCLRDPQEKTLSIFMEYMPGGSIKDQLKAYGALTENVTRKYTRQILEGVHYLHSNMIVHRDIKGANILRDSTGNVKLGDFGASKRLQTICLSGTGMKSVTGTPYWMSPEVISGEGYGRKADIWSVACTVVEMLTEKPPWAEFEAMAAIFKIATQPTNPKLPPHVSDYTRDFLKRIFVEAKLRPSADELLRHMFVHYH
Method: as §1

PKD3 = target: T2, PKD3 (Homo sapiens, UniProt O94806)
T2 sequence (O94806 1-890): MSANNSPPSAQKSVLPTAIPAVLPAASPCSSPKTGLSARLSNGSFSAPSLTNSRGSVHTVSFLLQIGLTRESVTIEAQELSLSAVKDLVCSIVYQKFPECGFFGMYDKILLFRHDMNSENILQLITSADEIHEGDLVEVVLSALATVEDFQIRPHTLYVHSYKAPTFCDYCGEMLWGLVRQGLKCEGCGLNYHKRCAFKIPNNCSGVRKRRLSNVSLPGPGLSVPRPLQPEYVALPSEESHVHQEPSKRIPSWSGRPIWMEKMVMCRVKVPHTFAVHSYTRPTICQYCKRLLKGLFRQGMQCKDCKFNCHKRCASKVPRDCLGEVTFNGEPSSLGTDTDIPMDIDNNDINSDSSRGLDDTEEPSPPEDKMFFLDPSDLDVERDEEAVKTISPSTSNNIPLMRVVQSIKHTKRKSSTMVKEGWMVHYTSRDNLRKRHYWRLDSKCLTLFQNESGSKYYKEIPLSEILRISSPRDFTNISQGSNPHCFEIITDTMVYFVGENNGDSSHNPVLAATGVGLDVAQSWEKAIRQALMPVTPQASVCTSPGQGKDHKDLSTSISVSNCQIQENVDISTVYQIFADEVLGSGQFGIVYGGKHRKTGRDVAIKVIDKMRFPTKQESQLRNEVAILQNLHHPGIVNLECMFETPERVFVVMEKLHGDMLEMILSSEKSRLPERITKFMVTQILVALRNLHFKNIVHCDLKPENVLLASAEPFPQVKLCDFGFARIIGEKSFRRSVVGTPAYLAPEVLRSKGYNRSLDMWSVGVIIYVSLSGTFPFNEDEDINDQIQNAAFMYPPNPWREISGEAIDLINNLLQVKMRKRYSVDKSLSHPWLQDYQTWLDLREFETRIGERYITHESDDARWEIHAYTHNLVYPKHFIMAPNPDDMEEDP
Method: as §1

AurA = target: T3, AurA (Homo sapiens, UniProt O14965)
T3 sequence (O14965 1-403): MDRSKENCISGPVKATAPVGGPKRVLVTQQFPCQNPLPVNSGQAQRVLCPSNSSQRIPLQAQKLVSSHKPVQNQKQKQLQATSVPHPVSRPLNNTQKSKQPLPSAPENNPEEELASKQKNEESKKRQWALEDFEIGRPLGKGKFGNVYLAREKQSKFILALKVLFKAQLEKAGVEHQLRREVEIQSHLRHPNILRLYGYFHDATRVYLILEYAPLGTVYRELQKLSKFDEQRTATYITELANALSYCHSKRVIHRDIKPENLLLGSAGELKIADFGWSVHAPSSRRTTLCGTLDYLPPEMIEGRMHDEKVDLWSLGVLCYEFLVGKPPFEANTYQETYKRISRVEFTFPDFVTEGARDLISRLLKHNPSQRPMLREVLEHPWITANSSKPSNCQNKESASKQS
Method: as §1

Chain of LRRK2 (Q5S007 whole entry): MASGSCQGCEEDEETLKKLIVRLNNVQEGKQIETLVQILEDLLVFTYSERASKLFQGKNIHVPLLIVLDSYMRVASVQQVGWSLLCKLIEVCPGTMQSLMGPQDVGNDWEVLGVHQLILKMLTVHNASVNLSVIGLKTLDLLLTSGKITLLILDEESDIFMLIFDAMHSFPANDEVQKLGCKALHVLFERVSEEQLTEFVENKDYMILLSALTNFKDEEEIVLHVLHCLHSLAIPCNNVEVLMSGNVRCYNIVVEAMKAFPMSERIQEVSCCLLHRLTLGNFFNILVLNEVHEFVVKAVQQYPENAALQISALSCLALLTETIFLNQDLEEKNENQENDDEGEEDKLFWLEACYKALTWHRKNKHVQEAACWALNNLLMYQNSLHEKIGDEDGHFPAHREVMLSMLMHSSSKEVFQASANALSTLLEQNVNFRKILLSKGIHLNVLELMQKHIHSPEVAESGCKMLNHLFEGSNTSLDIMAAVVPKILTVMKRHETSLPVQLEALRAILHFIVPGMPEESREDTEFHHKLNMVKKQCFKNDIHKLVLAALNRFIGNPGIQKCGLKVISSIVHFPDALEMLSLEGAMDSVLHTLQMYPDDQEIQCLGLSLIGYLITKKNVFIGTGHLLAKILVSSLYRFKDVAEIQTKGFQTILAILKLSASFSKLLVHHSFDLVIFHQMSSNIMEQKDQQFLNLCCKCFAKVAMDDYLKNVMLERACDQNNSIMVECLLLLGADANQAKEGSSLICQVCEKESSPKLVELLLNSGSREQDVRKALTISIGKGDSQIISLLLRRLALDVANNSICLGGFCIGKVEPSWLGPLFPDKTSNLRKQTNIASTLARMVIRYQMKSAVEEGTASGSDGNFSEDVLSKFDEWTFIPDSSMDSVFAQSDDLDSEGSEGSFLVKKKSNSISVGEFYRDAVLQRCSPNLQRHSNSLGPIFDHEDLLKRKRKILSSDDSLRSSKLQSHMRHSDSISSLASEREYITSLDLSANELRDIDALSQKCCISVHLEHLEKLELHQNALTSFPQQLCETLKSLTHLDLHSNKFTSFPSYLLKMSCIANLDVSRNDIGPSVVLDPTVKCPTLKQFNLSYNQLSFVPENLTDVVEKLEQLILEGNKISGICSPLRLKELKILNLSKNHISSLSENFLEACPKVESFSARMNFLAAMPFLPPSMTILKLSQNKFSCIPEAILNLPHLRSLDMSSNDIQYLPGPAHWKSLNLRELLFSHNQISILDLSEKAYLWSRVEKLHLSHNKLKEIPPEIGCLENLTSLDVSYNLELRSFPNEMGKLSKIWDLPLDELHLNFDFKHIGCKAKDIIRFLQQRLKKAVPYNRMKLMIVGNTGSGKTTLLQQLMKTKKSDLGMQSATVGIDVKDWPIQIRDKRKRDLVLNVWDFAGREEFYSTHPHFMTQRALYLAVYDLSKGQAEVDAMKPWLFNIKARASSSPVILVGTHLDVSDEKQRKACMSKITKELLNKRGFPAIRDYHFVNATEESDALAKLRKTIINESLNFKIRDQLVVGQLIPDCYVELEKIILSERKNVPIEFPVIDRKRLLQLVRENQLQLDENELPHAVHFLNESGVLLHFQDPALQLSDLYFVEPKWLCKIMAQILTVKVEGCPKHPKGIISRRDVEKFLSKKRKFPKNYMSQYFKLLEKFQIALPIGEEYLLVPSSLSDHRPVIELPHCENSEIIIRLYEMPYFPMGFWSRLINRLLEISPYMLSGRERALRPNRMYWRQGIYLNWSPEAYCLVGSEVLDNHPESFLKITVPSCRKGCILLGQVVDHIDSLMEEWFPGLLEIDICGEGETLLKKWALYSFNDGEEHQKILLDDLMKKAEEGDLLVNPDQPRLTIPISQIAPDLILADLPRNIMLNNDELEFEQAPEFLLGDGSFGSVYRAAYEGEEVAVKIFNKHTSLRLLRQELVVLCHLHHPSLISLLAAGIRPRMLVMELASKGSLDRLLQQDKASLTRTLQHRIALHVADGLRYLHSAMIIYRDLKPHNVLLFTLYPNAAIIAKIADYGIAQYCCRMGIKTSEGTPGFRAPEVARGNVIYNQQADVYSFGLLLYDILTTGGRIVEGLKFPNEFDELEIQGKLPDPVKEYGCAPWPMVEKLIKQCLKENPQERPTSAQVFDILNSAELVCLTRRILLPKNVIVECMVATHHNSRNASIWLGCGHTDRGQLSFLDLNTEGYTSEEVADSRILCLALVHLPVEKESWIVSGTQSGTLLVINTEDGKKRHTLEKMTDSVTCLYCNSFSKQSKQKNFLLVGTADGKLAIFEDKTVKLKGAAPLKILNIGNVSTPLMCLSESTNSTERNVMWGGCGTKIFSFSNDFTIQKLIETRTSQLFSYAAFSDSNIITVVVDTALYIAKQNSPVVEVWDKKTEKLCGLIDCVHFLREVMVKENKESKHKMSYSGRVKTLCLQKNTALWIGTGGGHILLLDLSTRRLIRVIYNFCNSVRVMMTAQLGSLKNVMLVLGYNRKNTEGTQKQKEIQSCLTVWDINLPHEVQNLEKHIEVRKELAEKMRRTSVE

inhibition at 10 µM (LRRK2): 85.2% | inhibition at 10 µM (PKN1): 93.7% | inhibition at 10 µM (MSK2): 95.3% | inhibition at 10 µM (MAP3K2): 93.9% | inhibition at 10 µM (PKD3): 95.7% | inhibition at 10 µM (AurA): 94%
SMILES: CS(=O)(=O)Nc1ccccc1Nc1nc(Nc2cccc(OCCN)c2)ncc1Cl [CZC31326, N-(2-(2-(3-(2-aminoethoxy)phenylamino)-5-chloropyrimidin-4-ylamino)phenyl)methanesulfonamide]

From patent US20120270237A9, “METHODS FOR THE IDENTIFICATION OF KINASE INTERACTING MOLECULES AND FOR THE PURIFICATION OF KINASE PROTEINS” (Cellzone AG, priority 2009, published 2012)
